Like-named read-outs stand apart in the source and are kept apart here.
How the values were obtained:
[1] = target: T1, human COX-2 (Homo sapiens, UniProt P35354); experiment: Cyclooxygenase assay (oxygen electrode), COX-2; format: biochemical; conditions: 100 µM AA, pH 8.0, 37°C, oxygen consumption
T1 construct: purchased Cayman chemical 60122
T1 sequence (P35354 18-604): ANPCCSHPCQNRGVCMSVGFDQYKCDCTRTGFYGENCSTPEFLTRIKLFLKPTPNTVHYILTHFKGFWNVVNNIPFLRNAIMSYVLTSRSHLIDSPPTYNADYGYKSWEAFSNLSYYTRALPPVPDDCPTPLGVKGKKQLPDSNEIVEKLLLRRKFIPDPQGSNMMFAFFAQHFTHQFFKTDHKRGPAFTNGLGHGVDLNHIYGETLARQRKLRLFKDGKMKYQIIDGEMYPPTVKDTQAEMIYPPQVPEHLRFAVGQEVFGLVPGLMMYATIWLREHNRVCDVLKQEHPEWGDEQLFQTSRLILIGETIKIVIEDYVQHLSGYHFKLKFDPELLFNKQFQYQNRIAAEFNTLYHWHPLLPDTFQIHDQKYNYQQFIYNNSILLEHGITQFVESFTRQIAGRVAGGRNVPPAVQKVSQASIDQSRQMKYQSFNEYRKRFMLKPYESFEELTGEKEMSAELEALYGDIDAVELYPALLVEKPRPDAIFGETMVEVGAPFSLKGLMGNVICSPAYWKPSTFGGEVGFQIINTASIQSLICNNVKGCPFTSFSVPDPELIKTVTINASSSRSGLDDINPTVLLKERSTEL
Procedure: Ovine COX-1 (Cat. No. 60100) and human COX-2 (Cat. No. 60122) were purchased from Cayman chemical. Approximately 2 µg of either COX-1 or COX-2 were added to buffer containing 100 µM AA, 0.1 M Tris-HCl buffer (pH 8.0), 5 mM EDTA, 2 mM phenol and 1 µM hematin at 37°C. Data was collected using a Hansatech DW1 oxygen electrode chamber, as described before. Inhibitor or vehicle were mixed with the respective COX in buffer within the electrode cell, the reaction was initiated by the addition of AA, followed by monitoring of rate of oxygen consumption. Ibuprofen, aspirin and indomethacin, and the carrier solvent, DMSO, were used as positive and negative controls, respectively.

[2] = target: T2, 5-LOX (Homo sapiens, UniProt P09917); experiment: Pseudoperoxidase activity assay; format: biochemical; conditions: 10 µM inhibitor, 10 µM 13-HPODE, positive = loss of greater than 40% of product absorption at 234 nm
T2 construct: made in house
T2 sequence (P09917 1-674): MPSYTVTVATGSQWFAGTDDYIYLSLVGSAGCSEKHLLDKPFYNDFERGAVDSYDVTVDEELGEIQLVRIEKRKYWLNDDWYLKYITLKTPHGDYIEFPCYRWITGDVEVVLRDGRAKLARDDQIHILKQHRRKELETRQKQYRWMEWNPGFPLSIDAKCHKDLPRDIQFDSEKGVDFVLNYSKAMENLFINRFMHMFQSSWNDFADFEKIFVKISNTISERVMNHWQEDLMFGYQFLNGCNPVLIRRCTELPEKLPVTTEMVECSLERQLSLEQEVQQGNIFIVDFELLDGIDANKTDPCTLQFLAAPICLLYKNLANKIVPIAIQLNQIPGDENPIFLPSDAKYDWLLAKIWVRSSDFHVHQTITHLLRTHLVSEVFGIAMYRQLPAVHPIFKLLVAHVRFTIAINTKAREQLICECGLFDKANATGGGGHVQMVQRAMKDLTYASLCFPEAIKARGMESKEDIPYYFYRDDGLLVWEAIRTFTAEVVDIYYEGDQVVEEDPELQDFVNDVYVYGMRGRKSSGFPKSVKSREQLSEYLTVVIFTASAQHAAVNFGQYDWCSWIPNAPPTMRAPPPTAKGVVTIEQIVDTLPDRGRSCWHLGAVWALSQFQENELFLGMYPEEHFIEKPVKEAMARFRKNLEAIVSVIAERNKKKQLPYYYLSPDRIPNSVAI
Procedure: The reductive properties of the inhibitors were determined by monitoring the pseudoperoxidase activity of lipoxygenase in the presence of the inhibitor and 13-(S)-hydroperoxyoctadecadienoic acid (13-HPODE). Activity is monitored by direct measurement of the product degradation following the decrease of absorbance at 234 nm using a Perkin-Elmer Lambda 40 UV/Vis spectrometer (50 mM Sodium Phosphate (pH 7.4), 0.3 mM CaCl2, 0.1 mM EDTA, 0.01% Triton X100, 10 µM 13-HPODE). All reactions were performed in 2 mL of buffer and constantly stirred with a rotating stir bar (23°C). Reaction was initiated by addition of 10 µM inhibitor (a 1 to 1 ratio to 13-HPODE), and a positive result for activity reflected a loss of greater than 40% of product absorption at 234 nm.

[3] = target: T3, CaCYP51 (Candida albicans, UniProt P10613); experiment: CYP51 reconstitution assay, CaCYP51; format: biochemical
T3 construct: made in house; host or cells: E. coli
Procedure: Azole antifungal agents were added in 5 µL DMSO followed by incubation for 5 minutes at 37°C prior to assay initiation with 4 mM β-NADPHNa4, with shaking for a further 10 minutes at 37°C. Sterol metabolites were recovered by extraction with ethyl acetate followed by derivatization with N,O-bis(trimethylsilyl)trifluoroacetamide and […] prior to analysis by gas chromatography mass spectrometry.

[4] = target: T4, Human leukocyte 5-lipoxygenase (Homo sapiens, UniProt P09917); conditions: [13], cited from earlier work
T4 construct: made in house
T4 sequence (P09917 1-674): T2 sequence (P09917 1-674)

T3 sequence (P10613 whole entry): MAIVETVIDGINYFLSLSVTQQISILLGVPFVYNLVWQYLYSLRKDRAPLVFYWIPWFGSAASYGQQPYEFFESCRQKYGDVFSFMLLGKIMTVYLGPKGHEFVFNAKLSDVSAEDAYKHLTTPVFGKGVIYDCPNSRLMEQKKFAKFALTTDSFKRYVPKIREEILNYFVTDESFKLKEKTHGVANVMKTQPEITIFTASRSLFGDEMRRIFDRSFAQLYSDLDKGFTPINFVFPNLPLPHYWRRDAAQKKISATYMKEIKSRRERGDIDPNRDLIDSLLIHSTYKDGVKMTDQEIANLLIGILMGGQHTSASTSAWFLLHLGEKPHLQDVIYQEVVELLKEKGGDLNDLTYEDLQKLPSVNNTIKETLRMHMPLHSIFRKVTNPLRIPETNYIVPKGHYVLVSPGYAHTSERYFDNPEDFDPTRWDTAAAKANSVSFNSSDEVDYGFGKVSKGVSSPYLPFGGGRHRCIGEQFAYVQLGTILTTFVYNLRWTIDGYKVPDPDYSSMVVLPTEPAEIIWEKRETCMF

Compound | IC50 [1] | Reductive activity (pseudoperoxidase activity) [2] | also measured
CC(=O)N1CCN(c2ccc(NCc3ccc(-c4cccc(Cl)c4)o3)cc2)CC1 [Compound 13] | > 150 µM |  | 
CC(=O)N1CCN(c2ccc(NCC3COC(Cn4ccnc4)(c4ccc(Cl)cc4Cl)O3)cc2)CC1 (stereo not drawn) [ketaminazole (16), ketaminazole] | > 150 µM | reductive inhibitor and Yes | IC50 ([3]; 1 µM CaCYP51, 50 µM lanosterol, read-out: CaCYP51 IC50): ~0.9 µM; CYP51 activity retained ([3]; CaCYP51, at 4 µM compound): ~15%
CC(=O)N1CCN(c2ccc(OCC3COC(Cn4ccnc4)(c4ccc(Cl)cc4Cl)O3)cc2)CC1 (stereo not drawn) [ketoconazole, reference compound] | > 150 µM | No | IC50 [3]: ~0.5 µM; IC50 ([4]; read-out: 5-LOX IC50, ref [12]): > 50 µM
CC(C)(C)OC(=O)N1CCN(c2ccc(NCc3ccc(-c4ccc(C#N)cc4)o3)cc2)CC1 [Compound 1] | > 150 µM | Yes | 
Cc1cc(C2CCCCC2)n(O)c(=O)c1 [ciclopirox, reference compound] | > 150 µM |  | 
CC[C@](O)(c1nnc(NCc2ccc3c(-c4ccc(F)cc4)cc(=O)oc3c2)o1)C(F)(F)F [setileuton, reference compound] |  | non-reductive | Reductive activity (pseudoperoxidase activity) ([2]; listed as Setileuton): No; IC50 ([4]; ref [2], read-out: 5-LOX IC50, literature value): 0.045 ± 0.01 µM
